We go through seven molecules from patent publication US7550457B2, “Pharmaceutically effective compounds” (CytRx Corporation, priority 2002, dated 2009).

SMILES strings stand for the structures.

Assay [1] deals with thoracic aorta of SH rats. The assay can be described thus: Vaso-relaxing effect on the thoracic aorta of SH rats (in vitro testing after one month treatment). The note with it: aorta rings of SH rats treated for one month (dose per compound as in table), contracted with 10^-6 M methoxamine, unit assumed; for vessel relaxing effect, Ach dose 10^-5 M: acetylcholine 10^-5 M; for vessel relaxing effect, Ach dose 10^-6 M: acetylcholine 10^-6 M; for vessel relaxing effect, Ach dose 10^-4 M: acetylcholine 10^-4 M. Format: in vivo, rat. The procedure:
In the following, we give the results of the test of blood vessel relaxing effect, performed in vitro on rat vessels, and also the morphological results of the thoracic aorta.
(§1) Three-month-old, genetically hypertonic (SH) Wistar Okamoto rats were treated for one month with various test compounds. Thereafter the functional and morphological tests were performed.
The Vaso-relaxing Effect of the Compounds of the Invention on the Thoracic Aorta of SH Rats (In Vitro Testing)
The test was performed by the method known from the literature [Japan J. Pharmacol., 59, 339-347 (1992)]. The SH rats were anesthetized with Nembutal (40 mg/kg, i. p.), then the thoracic aorta was removed and placed in oxygenized (95% O2+5% CO2) Krebs-Henseleit solution. The composition of the solution (mM): NaCl 118, KCI 4, 7, CaCl2 2,52, MgSO4 1,64, NaHCO3 24,88, KH2PO4 1,18, glucose 5,5. The 3-mm-long aorta rings were suspended in a 20 ml organ bath of 37° C. The resting tension was 1 g, which was maintained throughout the equilibration. During the 1 hour equilibration, the medium was changed in every 20 minutes. The vessels were contracted with 10^−6 M methoxamine (approximately 80% of maximal contraction). After reaching the maximal contraction, we tested the vasodilation resulting as the effect of the acetylcholine (Ach) (10^−6−10^−4 M), which informed us about the condition of the endothelium of the vessel wall. The contraction force was measured by an isometric strain gauge (SG-01D, Experimentia Ltd), and was registered on an OH-850 polygraph (Radelkis). At this time again, 5,6-dihydro-5-(1-piperidinyl)-methyl-3-(3-pyridyl)-4H-1,2,4-oxadiazine as described in WO 98/06400 was used as a reference compound.

Assay [2] concerns thoracic aorta of SH rats. The assay can be described thus: Morphological testing of the thoracic aortas with electron microscopy. Format: in vivo, rat. The arrangement: key: 1: no regeneration was observable; 2: weak; 3: average; 4: good; 5: strong regeneration. The note with it: SH rats treated p. o. for one month (dose per compound as in table), scale of 1 to 5, electron microscopy of thoracic aorta endothelium. The procedure: as §1
Morphological Testing of the Thoracic Aortas with Electron Microscopy
The test was performed according to the procedure known from the literature (Br. J. of Pharmacol., 1995; 115, 415-420). 1 mm^2 pieces of the aorta wall was cut out of the thoracic aorta of the rats, and were then fixed with 2.5% glutaraldehyde at room temperature for 2 hours. This was followed by a post-fixation with 1% osmium tetroxide for 1 hour. Afterwards, the tissue pieces were dehydrated with ethanol, and embedded in Durcupan ACM. The samples were evaluated qualitatively based on the images recorded on a Hitachi 7100 electron microscope.
On the scale, 1 was used to refer to cases where no regeneration was observable, 2 refers to weak, 3 to average, 4 to good, and 5 to strong regeneration.

The subject of assay [3] is human umbilical vein endothelial cells (HUVEC). The assay can be described thus: Wounding migration assay in endothelial cell culture. The note with it: wounded HUVEC monolayer, 24 hours after wounding, test agent 10^-6 M. Type of assay: cell-based. As to the method:
Wounding Migration Assay in Endothelial Cell Culture
The effect of the compounds of the invention on the wounded monolayers of human umbilical vein endothelial cells (HUVEC) were studied in a cell culture system (in vitro). After reaching confluence, the HUVEC cells were wounded according to the method of Yamamura et al. (J. Surgical Res. 63, 349-354, 1996). The number of migrated cells were registered using computerized image analysis 24 hours after wounding in the absence and presence of the active agents under testing in a concentration of 10^−6 M. The active ingredient described in publication no. WO 98/06400, namely 5,6-dihydro-5-(1-piperidinyl)-methyl-3-(3-pyridyl)-4H-1,2,4-oxadiazine was used as reference compound.

The molecule `O=C1CCCCN1CC1CON=C(c2cccnc2)N1` (single isomer, unassigned) [Compound no. 8, (R) or (S)-5,6-dihydro-5-[(2-oxo-1-piperidinyl)methyl]-3-(3-pyridyl)-4H-1,2,4-oxadiazine] yielded a vessel relaxing effect, Ach dose 10^-5 M in assay [1] of 88%.
`[O-][n+]1cccc(C2=NOCC(CN3CCCCC3)N2)c1` (single isomer, unassigned; (+)) [Compound no. 9, (+)-5,6-dihydro-5-[(1-piperidinyl)methyl]-3-(1-oxido-3-pyridyl)-4H-1,2,4-oxadiazine]: in assay [1], the vessel relaxing effect, Ach dose 10^-6 M worked out at 87%.
On to `O.O.O=[N+]([O-])c1cccc(C(Cl)=NOCCC[N+]2([O-])CCCCC2)c1` [Compound no. 4, N-[3-(1-oxido-1-piperidinyl)propoxy]-3-nitro-benzimidoyl-chloride dihydrate], for which, in assay [1], the vessel relaxing effect, Ach dose 10^-4 M stood at 88.1%; the vessel relaxing effect, Ach dose 10^-5 M is 84.9%; the vessel relaxing effect, Ach dose 10^-6 M was 82.5%. The molecule further gave a Degree of regeneration in assay [2] of 5. For the same molecule, the “number of migrated cells, cell/mm^2 24 hours” value (shortened to “number of migrated cells”) in assay [3] was found to be 45 cell/mm^2.
For `OC1CCN(CC2CON=C(c3cccnc3)N2)CC1` (centres unmarked) [Compound no. 11, 5,6-dihydro-5-[(4-hydroxy-1-piperidinyl)methyl]-3-(3-pyridyl)-4H-1,2,4-oxadiazine], in that order: 86%, 85.1%, 79.7%, 4 and 51 cell/mm^2.
In assay [1], `Cl.ClC(=NOCC(Cl)CN1CCCCC1)c1ccccc1` (centres unmarked) [Compound no. 12, N-[2-chloro-3-(1-piperidinyl)propoxy]-3-benzimidoyl-chloride hydrochloride] gave a vessel relaxing effect, Ach dose 10^-4 M of 80.4%; a vessel relaxing effect, Ach dose 10^-5 M of 83.5%; a vessel relaxing effect, Ach dose 10^-6 M of 82.3%. This molecule also returned a Degree of regeneration in assay [2] of 3. Also, the “number of migrated cells” value in assay [3] stood at 60 cell/mm^2.
The like results for `O=C(NOCC(O)CN1CCCCC1)c1ccc[n+]([O-])c1` (centres unmarked) [Compound no. 13, N-[2-hydroxy-3-(1-piperidinyl)propoxy]-pyridin-1-oxide-3-carboxamide] were, in that order, 95.2%, 90.3%, 88.4%, 4 and 54 cell/mm^2.
Regarding `c1cncc(C2=NOCC(CN3CCCCC3)N2)c1` (centres unmarked) [Reference, 5,6-dihydro-5-(1-piperidinyl)-methyl-3-(3-pyridyl)-4H-1,2,4-oxadiazine, reference compound], in assay [1], the vessel relaxing effect, Ach dose 10^-4 M came out at 81.7%; the vessel relaxing effect, Ach dose 10^-5 M came out at 80.2%; the vessel relaxing effect, Ach dose 10^-6 M was 77.4%. The “number of migrated cells” value in assay [3] was 30 cell/mm^2.
